≈ marks a conversion by molar mass, not a printed value. Calls of active or inactive are those of the source. No cut-off for these calls is given here.
How the values were obtained:
[1] = system: Pichia kudriavzevii; assay: Antifungal activity against Pichia kudriavzevii assessed as fungal growth inhibition by CLSI based microdilution method; format: functional
[2] = system: Candida albicans; assay: Antibiofilm activity against Candida albicans CPCC400616 incubated for 24 hrs by XTT reduction assay; format: functional, organism-based; conditions: dose <= 128.0 µg/ml
[3] = system: Nakaseomyces glabratus; assay: Antifungal activity against Candida glabrata assessed as fungal growth inhibition by CLSI based microdilution method; format: functional
[4] = Subacute toxicity in KM mouse assessed as liver damage at 100 mg/kg administered via gavage daily for 7 days; format: organism-based; conditions: in vivo, po, 168 h, time 7 day
[5] = system: Candida albicans; assay: Antifungal activity against Candida albicans SC5314 assessed as leakage of endogenous material within cells at 16 ug/ml incubated for 24 hrs by TEM analysis; format: functional, organism-based; conditions: dose 16.0 µg/ml
[6] = system: Candida albicans; assay: Antifungal activity against Candida albicans CPCC400616 assessed as reduction in CPH1 expression at 2 ug/ml incubated for 12 hrs by RT-PCR analysis; format: functional, organism-based; conditions: dose 2.0 µg/ml
[7] = system: Candida albicans; assay: Antifungal activity against Candida albicans CPCC400616 assessed as inhibition of yeast to hypha morphological transition at 2 ug/ml incubated for 4 hrs by inverted microscopy; format: functional, organism-based; conditions: dose 2.0 µg/ml
[8] = Stability in mouse plasma assessed as half life at 1 uM measured for 180 mins by LC-MS/MS analysis; format: ADME, cell-free
[9] = system: Candida albicans; assay: Antifungal activity against fluconazole-resistant Candida albicans 904 assessed as fungal growth inhibition by CLSI based microdilution method; format: functional
[10] = system: Candida albicans; assay: Antifungal activity against Candida albicans SC5314 assessed as destruction of cell membrane at 16 ug/ml incubated for 24 hrs by TEM analysis; format: functional, organism-based; conditions: dose 16.0 µg/ml
[11] = system: Candida albicans; assay: Antifungal activity against fluconazole-resistant Candida albicans 904 assessed as decrease in CDR1 expression at 16 ug/ml measured after 16 hrs by RT-PCR analysis; format: functional, organism-based; conditions: dose 16.0 µg/ml
[12] = Subacute toxicity in male KM mouse assessed as focal infiltration of lymphocytes in kidney at 100 mg/kg administered via gavage daily for 7 days; format: organism-based; conditions: in vivo, po, 168 h, time 7 day
[13] = molecular target: Cytochrome P450 2C9 (Homo sapiens, UniProt P11712); assay: Inhibition of CYP2C9 in human liver microsomes using diclofenac as substrate preincubated for 5 mins followed by NADPH addition by LC-MS/MS analysis; format: ADME, Microsome
[14] = system: Candida albicans; assay: Induction of ROS production in fluconazole-resistant Candida albicans 904 at 64 ug/ml incubated for 30 mins by fluorescence microscopy; format: functional, organism-based; conditions: dose 64.0 µg/ml
[15] = Subacute toxicity in KM mouse assessed as liver inflammation at 100 mg/kg administered via gavage daily for 7 days; format: organism-based; conditions: in vivo, po, 168 h, time 7 day
[16] = system: Candida albicans; assay: Antifungal activity against Candida albicans SC5314 assessed as cell lysis at 16 ug/ml incubated for 24 hrs by TEM analysis; format: functional, organism-based; conditions: dose 16.0 µg/ml
[17] = system: Candida albicans; assay: Antifungal activity against fluconazole-resistant Candida albicans 632 assessed as fungal growth inhibition by CLSI based microdilution method; format: functional
[18] = Subacute toxicity in KM mouse assessed as mortality at 100 mg/kg administered via gavage daily for 14 days; format: organism-based; conditions: in vivo, po, 336 h, time 14 day
[19] = system: Candida albicans; assay: Antifungal activity against fluconazole-resistant Candida albicans 904 assessed as inhibition of yeast to hypha morphological transition at 16 ug/ml incubated for 4 hrs by inverted microscopy; format: functional, organism-based; conditions: dose 16.0 µg/ml
[20] = system: Candida albicans; assay: Antifungal activity against fluconazole-resistant Candida albicans 904 assessed as reduction in EFG1 expression at 16 ug/ml incubated for 12 hrs by RT-PCR analysis; format: functional, organism-based; conditions: dose 16.0 µg/ml
[21] = system: Candida albicans; assay: Antifungal activity against Candida albicans SC5314 assessed as destruction of cell wall at 16 ug/ml incubated for 24 hrs by TEM analysis; format: functional, organism-based; conditions: dose 16.0 µg/ml
[22] = molecular target: Cytochrome P450 2C19 (Homo sapiens, UniProt P33261); assay: Inhibition of CYP2C19 in human liver microsomes using […] as substrate preincubated for 5 mins followed by NADPH addition by LC-MS/MS analysis; format: ADME, Microsome
[23] = system: Candida albicans; assay: Antifungal activity against fluconazole-resistant Candida albicans 904 assessed as decrease in MDR1 expression at 16 ug/ml measured after 16 hrs by RT-PCR analysis; format: functional, organism-based; conditions: dose 16.0 µg/ml
[24] = system: Candida albicans; assay: Antifungal activity against fluconazole-resistant Candida albicans CaR assessed as fungal growth inhibition by CLSI based microdilution method; format: functional
[25] = system: Candida albicans; assay: Antifungal activity against fluconazole-resistant Candida albicans 904 assessed as fungal growth inhibition measured for 48 hrs by CLSI based microdilution method; format: functional
[26] = molecular target: T1, Lanosterol 14-alpha demethylase (Candida albicans (strain SC5314 / ATCC MYA-2876) (Yeast), UniProt P10613); assay: Inhibition of CYP51 in Candida albicans SC5314 assessed as increase in eburicol level at 0.03125 ug/ml incubated for 24 hrs by GC-MS analysis; conditions: at 0.03125 µg/mL
[27] = Metabolic stability in mouse liver microsomes assessed as half life incubated for 5 to 60 mins by LC-MS/MS analysis; format: ADME, Microsome; conditions: time 5-60 min
[28] = Subacute toxicity in female KM mouse assessed as liver inflammation at 100 mg/kg administered via gavage daily for 14 days; format: organism-based; conditions: in vivo, po, 336 h, time 14 day
[29] = system: Candida tropicalis; assay: Antifungal activity against Candida tropicalis assessed as fungal growth inhibition by CLSI based microdilution method; format: functional
[30] = system: Cryptococcus neoformans; assay: Antifungal activity against Cryptococcus neoformans assessed as fungal growth inhibition by CLSI based microdilution method; format: functional
[31] = system: Candida albicans; assay: Antifungal activity against fluconazole-resistant Candida albicans 901 assessed as fungal growth inhibition by CLSI based microdilution method; format: functional
[32] = molecular target: T1, Lanosterol 14-alpha demethylase; assay: Inhibition of CYP51 in Candida albicans SC5314 assessed as increase in obtusifoliol level at 0.03125 ug/ml incubated for 24 hrs by GC-MS analysis; conditions: at 0.03125 µg/mL
[33] = system: Candida albicans; assay: Antifungal activity against fluconazole-resistant Candida albicans 904 assessed as decrease in CDR2 expression at 16 ug/ml measured after 16 hrs by RT-PCR analysis; format: functional, organism-based; conditions: dose 16.0 µg/ml
[34] = system: Candida albicans; assay: Antifungal activity against fluconazole-resistant Candida albicans 904 assessed as decrease in ERG11 expression at 16 ug/ml measured after 16 hrs by RT-PCR analysis; format: functional, organism-based; conditions: dose 16.0 µg/ml
[35] = system: Candida albicans; assay: Antifungal activity against fluconazole-resistant Candida albicans 17# assessed as fungal growth inhibition by CLSI based microdilution method; format: functional
[36] = system: Candida albicans; assay: Antifungal activity against fluconazole-resistant Candida albicans 904 assessed as reduction in CPH1 expression at 16 ug/ml incubated for 12 hrs by RT-PCR analysis; format: functional, organism-based; conditions: dose 16.0 µg/ml
[37] = system: Candida albicans; assay: Antifungal activity against Candida albicans SC5314 assessed as fungal growth inhibition by CLSI based microdilution method; format: functional
[38] = system: Candida albicans; assay: Antifungal activity against fluconazole-resistant Candida albicans 904 assessed as reduction in ALS3 expression at 16 ug/ml incubated for 12 hrs by RT-PCR analysis; format: functional, organism-based; conditions: dose 16.0 µg/ml
[39] = system: Candida parapsilosis; assay: Antifungal activity against Candida parapsilosis assessed as fungal growth inhibition by CLSI based microdilution method; format: functional; conditions: Lodderomyces parapsilosis
[40] = Subacute toxicity in male KM mouse assessed as kidney damage at 100 mg/kg administered via gavage daily for 14 days; format: organism-based; conditions: in vivo, po, 336 h, time 14 day
[41] = Subacute toxicity in female KM mouse assessed as kidney inflammation at 100 mg/kg administered via gavage daily for 7 days; format: organism-based; conditions: in vivo, po, 168 h, time 7 day
[42] = Subacute toxicity in female KM mouse assessed as kidney damage at 100 mg/kg administered via gavage daily for 7 days; format: organism-based; conditions: in vivo, po, 168 h, time 7 day

T1 sequence (P10613 whole entry): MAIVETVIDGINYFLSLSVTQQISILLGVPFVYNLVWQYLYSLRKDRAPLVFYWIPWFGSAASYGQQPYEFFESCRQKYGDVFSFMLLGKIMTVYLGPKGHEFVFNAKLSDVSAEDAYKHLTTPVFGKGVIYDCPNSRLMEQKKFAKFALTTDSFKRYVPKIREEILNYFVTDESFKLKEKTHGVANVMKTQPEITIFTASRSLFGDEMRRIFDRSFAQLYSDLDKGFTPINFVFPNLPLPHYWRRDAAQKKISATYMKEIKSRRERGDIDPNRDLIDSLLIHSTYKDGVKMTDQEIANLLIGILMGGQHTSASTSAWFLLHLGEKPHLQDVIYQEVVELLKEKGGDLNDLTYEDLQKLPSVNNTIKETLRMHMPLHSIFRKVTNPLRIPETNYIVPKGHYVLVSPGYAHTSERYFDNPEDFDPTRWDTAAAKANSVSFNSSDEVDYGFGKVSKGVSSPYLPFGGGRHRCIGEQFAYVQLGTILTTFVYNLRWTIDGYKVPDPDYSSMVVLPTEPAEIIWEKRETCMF
Chain of Cytochrome P450 2C9 (P11712 whole entry): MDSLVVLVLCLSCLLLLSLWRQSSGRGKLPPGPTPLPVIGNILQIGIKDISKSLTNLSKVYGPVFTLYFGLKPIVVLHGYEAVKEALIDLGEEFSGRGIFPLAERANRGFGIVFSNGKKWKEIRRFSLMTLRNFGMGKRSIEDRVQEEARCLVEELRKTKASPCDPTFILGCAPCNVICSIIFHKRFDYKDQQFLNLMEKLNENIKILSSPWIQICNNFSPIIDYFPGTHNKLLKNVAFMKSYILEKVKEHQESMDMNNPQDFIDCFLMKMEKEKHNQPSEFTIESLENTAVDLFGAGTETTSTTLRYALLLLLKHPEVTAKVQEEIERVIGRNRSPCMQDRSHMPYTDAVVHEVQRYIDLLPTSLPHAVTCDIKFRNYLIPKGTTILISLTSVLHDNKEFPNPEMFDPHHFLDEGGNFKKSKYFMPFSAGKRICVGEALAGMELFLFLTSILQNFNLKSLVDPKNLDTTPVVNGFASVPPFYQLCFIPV
Chain of Cytochrome P450 2C19 (P33261 whole entry): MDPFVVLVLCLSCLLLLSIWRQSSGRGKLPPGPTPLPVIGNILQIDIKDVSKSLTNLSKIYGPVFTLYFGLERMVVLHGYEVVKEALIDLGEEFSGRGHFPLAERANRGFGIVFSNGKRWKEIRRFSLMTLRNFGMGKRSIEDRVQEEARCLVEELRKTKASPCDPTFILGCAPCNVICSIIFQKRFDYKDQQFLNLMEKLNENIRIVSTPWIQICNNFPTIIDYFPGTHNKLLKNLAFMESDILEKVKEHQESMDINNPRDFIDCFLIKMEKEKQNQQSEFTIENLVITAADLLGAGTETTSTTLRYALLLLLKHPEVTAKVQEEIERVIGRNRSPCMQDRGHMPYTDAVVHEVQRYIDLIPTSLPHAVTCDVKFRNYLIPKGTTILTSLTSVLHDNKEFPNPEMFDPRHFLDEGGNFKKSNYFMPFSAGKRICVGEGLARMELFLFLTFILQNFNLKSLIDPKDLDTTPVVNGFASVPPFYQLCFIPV

Q: What does the source list for `O=c1ccc2ccc(COC(Cn3ccnc3)c3ccc(Cl)cc3Cl)cc2o1` (configuration not stated)?
A: MIC [1]: 2 µg/mL (≈ 4.82 µM); Activity [2]: Dose-Dependent Effect; MIC [3]: 0.5 µg/mL (≈ 1.2 µM); Activity [4]: Toxic; Activity [5]: Active; Activity [6]: Active; inhibition [7]: Active; half-life at 1 µM [8]: > 360 min; MIC [9]: 1 µg/mL (≈ 2.41 µM); Activity [10]: Active; Activity [11]: Active; Activity [12]: Toxic; IC50 [13]: 0.138 µM; Activity [14]: Active; Activity [15]: Toxic; Activity [16]: Active; MIC [17]: 4 µg/mL (≈ 9.63 µM); Activity [18]: Non-Toxic; inhibition [19]: Active; Activity [20]: Active; Activity [21]: Active; IC50 [22]: 0.227 µM; Activity [23]: Active; MIC [24]: 1 µg/mL (≈ 2.41 µM); MFC [25]: 8 µg/mL (≈ 19.3 µM); inhibition (INH) [26]: Active; half-life [27]: 15.2 min; Activity [28]: Toxic; MIC [29]: 0.25 µg/mL (≈ 0.602 µM); MIC [30]: 2 µg/mL (≈ 4.82 µM); MIC [31]: 4 µg/mL (≈ 9.63 µM); inhibition (INH) [32]: Active; Activity [33]: Active; Activity [34]: Active; MIC [35]: 4 µg/mL (≈ 9.63 µM); Activity [36]: Active; MIC [37]: 0.03 µg/mL (≈ 0.0722 µM); Activity [38]: Active; MIC [39]: 0.5 µg/mL (≈ 1.2 µM); Activity [40]: Toxic; Activity [41]: Non-Toxic; Activity [42]: Toxic

Reference: ChEMBL document CHEMBL5365497, “Developing Novel Coumarin-Containing Azoles Antifungal Agents by the Scaffold Merging Strategy for Treating Azole-Resistant Candidiasis” (J Med Chem, 2023)
